Data from article PMC8580996, “2-Oxoglutarate derivatives can selectively enhance or inhibit the activity of human oxygenases” (Nature Communications, 2021).
“And” between values parts separate entries of the source, which are not always exact repeats. Equal values may be shown once.

Legend:
[1] = molecular target: T1, FIH (Homo sapiens, UniProt Q9NWT6); assay: Competition assay in a single reaction vessel, FIH-catalyzed hydroxylation (SPE-MS); assay type: biochemical
Experimental: Mean of three independent runs (n = 3; mean ± SD). […] Cosubstrates: a 20 μM 2OG; b 20 μM 2OG; c 20 μM 1; d 20 μM 12; e 20 μM 12 and 100 μM 2OG; f 100 μM 14. Source data are provided as a Source Data file.
Mean of three independent runs (n = 3; mean ± SD). […] Source data are provided as a Source Data file.
Peptide turnover was monitored by SPE-MS using the same instrument configuration (with the exception that the peptides were eluted from the SPE cartridge with 0.1%v/v aqueous formic acid in 80/20 v/v acetonitrile/water) as described above.
FIH and AspH-catalyzed peptide hydroxylations were analyzed simultaneously using SPE-MS as described in the
Methods section; competition experiments were performed in the same reaction vessel using equimolar 2OG
oxygenase and substrate concentrations. […]
Source data are provided as a Source Data file.
FIH and AspH-catalyzed peptide hydroxylations were analyzed simultaneously using SPE-
MS as described in the Methods section; competition experiments were performed in the same reaction vessel
using equimolar 2OG oxygenase and substrate concentrations. […]
2OG, 100 μM 14. Source data are provided as a Source Data file.

[2] = molecular target: T1, FIH; assay: FIH steady-state kinetic parameters (SPE-MS, initial hydroxylation rates); assay type: biochemical; set-up: slope of initial reaction rate: unit not given here
Experimental: Final 2OG/2OG derivative concentrations are given in Supplementary Figs. 5 and 6. Reactions were monitored with a rate of ~1 sample/40 s using the same SPE-MS configuration as described above. Data were analyzed as described above and the slopes of the initial reaction rates (Supplementary Figs. 5 and 6) fitted to a Michaelis–Menten plot using non-linear regression (GraphPad Prism 5). […]
determine kinetic parameters for 2OG derivatives (continues on the following page). Maximum velocities (vapp ) and Michaelis constants (Kapp) of FIH were determined in independent triplicates for 2OG and the 2OG […]
SPE-MS as described in the Methods section. […]
acid (LAA), and 20 μM ammonium iron(II) sulfate hexahydrate (FAS, (NH4)2Fe(SO4)2·6H2O) in buffer (50 mM […]
Tris, 50 mM NaCl, pH 7.5, 20° C). […]
data are provided as a Source Data file. […]
concentrations of 2OG; (b) hydroxylation rates used to determine kinetic parameters of FIH for 2OG; (c) time […]
3-methyl-2OG (1); (d) hydroxylation rates used to determine kinetic parameters of FIH for 1; (e) time course of […]
2OG (12); (f) hydroxylation rates used to determine kinetic parameters of FIH for 12; (g) time course of the FIH- […]
(h) hydroxylation rates used to determine kinetic parameters of FIH for 14; (i) time course of the FIH-catalyzed […]
(carboxycarbonyl)cyclopentane-1-carboxylic acid (22); (j) hydroxylation rates used to determine kinetic parameters of FIH for 22.
Supplementary Figure 6. Hydroxylation rates of FIH-catalyzed CA1-20 hydroxylations used to determine kinetic parameters for 2OG derivatives (continues on the following page). Maximum velocities (vapp ) and […]
ammonium iron(II) sulfate hexahydrate (FAS, (NH4)2Fe(SO4)2·6H2O) in buffer (50 mM Tris, 50 mM NaCl, pH […]
Source data are provided as a Source […]
of 2OG; (b) hydroxylation rates used to determine kinetic parameters of FIH for 2OG; (c) time course of the FIH-catalyzed hydroxylation reaction of the CA1-20 peptide for the shown concentrations of 3-methyl-2OG (1); (d) hydroxylation rates used to determine kinetic parameters of FIH for 1; (e) time course of the FIH -catalyzed hydroxylation reaction of the CA 1-20 peptide for the shown concentrations of 4 -methyl-2OG (12); (f) hydroxylation rates used to determine kinetic parameters of FIH for 12; (g) time course of the FIH-catalyzed hydroxylation reaction of the CA1-20 peptide for the shown concentrations of 4-ethyl-2OG (14); (h) hydroxylation rates used to determine kinetic parameters of FIH for 14; (i) time course of the FIH-catalyzed hydroxylation reaction of the CA1-20 peptide for the shown concentrations of 3-(carboxycarbonyl)cyclopentane-1-carboxylic acid (22); (j) hydroxylation rates used to determine kinetic parameters of FIH for 22.

T1 sequence (Q9NWT6 whole entry): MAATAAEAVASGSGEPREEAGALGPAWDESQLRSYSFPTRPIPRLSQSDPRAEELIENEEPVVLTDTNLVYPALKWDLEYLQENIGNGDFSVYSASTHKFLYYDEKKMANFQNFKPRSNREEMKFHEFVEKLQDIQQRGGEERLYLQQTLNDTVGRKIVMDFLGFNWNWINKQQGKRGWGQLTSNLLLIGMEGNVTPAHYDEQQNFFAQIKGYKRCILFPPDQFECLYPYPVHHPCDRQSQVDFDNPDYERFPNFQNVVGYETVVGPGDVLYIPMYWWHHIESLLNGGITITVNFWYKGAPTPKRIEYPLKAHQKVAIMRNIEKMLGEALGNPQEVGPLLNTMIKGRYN

O=C(O)CCC(=O)C(=O)O [2OG, 2-Oxoglutarate]
substrate hydroxylation (% conversion) ([1]; Fig 2a, 20 μM 2OG, CA1-20, 0 min): 14.1515 and 16.7791 and 11.5447
substrate hydroxylation (% conversion) ([1]; Fig 2a, 20 μM 2OG, CA1-20, 0.703167 min): 47.9481 and 47.8258 and 38.5441
substrate hydroxylation (% conversion) ([1]; Fig 2a, 20 μM 2OG, CA1-20, 2.10933 min): 78.9866 and 77.8293 and 70.1307
substrate hydroxylation (% conversion) ([1]; Fig 2a, 20 μM 2OG, CA1-20, 2.8135 min): 85.5974 and 84.4447 and 78.5645
substrate hydroxylation (% conversion) ([1]; Fig 2a, 20 μM 2OG, CA1-20, 3.51633 min): 89.6698 and 89.0396 and 84.1833
substrate hydroxylation (% conversion) ([1]; Fig 2a, 20 μM 2OG, CA1-20, 4.22 min): 92.631 and 91.777 and 88.07
substrate hydroxylation (% conversion) ([1]; Fig 2a, 20 μM 2OG, CA1-20, 4.92317 min): 94.369 and 93.7454 and 90.6935
substrate hydroxylation (% conversion) ([1]; Fig 2a, 20 μM 2OG, CA1-20, 5.62833 min): 95.7579 and 95.0911 and 92.7125
substrate hydroxylation (% conversion) ([1]; Fig 2a, 20 μM 2OG, CA1-20, 6.33133 min): 97.057 and 96.0828 and 94.1188
substrate hydroxylation (% conversion) ([1]; Fig 2a, 20 μM 2OG, CA1-20, 7.03583 min): 97.7828 and 96.6689 and 95.1866
substrate hydroxylation (% conversion) ([1]; Fig 2a, 20 μM 2OG, CA1-20, 7.73917 min): 98.8257 and 97.1902 and 95.7428
substrate hydroxylation (% conversion) ([1]; Fig 2a, 20 μM 2OG, CA1-20, 8.444 min): 99.4037 and 97.3768 and 96.3319
substrate hydroxylation (% conversion) ([1]; Fig 2a, 20 μM 2OG, CA1-20, 9.1485 min): 99.7225 and 97.4249 and 96.6951
substrate hydroxylation (% conversion) ([1]; Fig 2a, 20 μM 2OG, CA1-20, 9.853 min): 99.5637 and 97.3528 and 97.1366
substrate hydroxylation (% conversion) ([1]; Fig 2a, 20 μM 2OG, CA1-20, 10.558 min): 100 and 97.2891 and 96.8671
substrate hydroxylation (% conversion) ([1]; Fig 2a, 20 μM 2OG, CA1-20, 11.2623 min): 100 and 94.1661
substrate hydroxylation (% conversion) ([1]; Fig 2a, 20 μM 2OG, HIF-1a788-822, 0.703167 min): 6.1581 and 8.558 and 6.1761
substrate hydroxylation (% conversion) ([1]; Fig 2a, 20 μM 2OG, HIF-1a788-822, 2.10933 min): 16.8685 and 19.2149 and 14.7272
substrate hydroxylation (% conversion) ([1]; Fig 2a, 20 μM 2OG, HIF-1a788-822, 2.8135 min): 22.0351 and 24.2966 and 18.9489
substrate hydroxylation (% conversion) ([1]; Fig 2a, 20 μM 2OG, HIF-1a788-822, 3.51633 min): 26.9176 and 28.8009 and 23.0891
substrate hydroxylation (% conversion) ([1]; Fig 2a, 20 μM 2OG, HIF-1a788-822, 4.22 min): 30.085 and 33.3713 and 26.7919
substrate hydroxylation (% conversion) ([1]; Fig 2a, 20 μM 2OG, HIF-1a788-822, 4.92317 min): 34.7093 and 37.5052 and 30.4684
substrate hydroxylation (% conversion) ([1]; Fig 2a, 20 μM 2OG, HIF-1a788-822, 5.62833 min): 37.941 and 41.581 and 34.0768
substrate hydroxylation (% conversion) ([1]; Fig 2a, 20 μM 2OG, HIF-1a788-822, 6.33133 min): 40.9748 and 45.5421 and 37.689
substrate hydroxylation (% conversion) ([1]; Fig 2a, 20 μM 2OG, HIF-1a788-822, 7.03583 min): 44.2421 and 48.7776 and 41.0727
substrate hydroxylation (% conversion) ([1]; Fig 2a, 20 μM 2OG, HIF-1a788-822, 7.73917 min): 46.5287 and 52.1147 and 44.2887
substrate hydroxylation (% conversion) ([1]; Fig 2a, 20 μM 2OG, HIF-1a788-822, 8.444 min): 50.2071 and 55.1688 and 46.8395
substrate hydroxylation (% conversion) ([1]; Fig 2a, 20 μM 2OG, HIF-1a788-822, 9.1485 min): 52.5573 and 57.8623 and 50.003
substrate hydroxylation (% conversion) ([1]; Fig 2a, 20 μM 2OG, HIF-1a788-822, 9.853 min): 55.5664 and 60.5077 and 52.8227
substrate hydroxylation (% conversion) ([1]; Fig 2a, 20 μM 2OG, HIF-1a788-822, 10.558 min): 57.4116 and 62.9095 and 55.0617
substrate hydroxylation (% conversion) ([1]; Fig 2a, 20 μM 2OG, HIF-1a788-822, 11.2623 min): 59.0832 and 64.3072 and 56.3348
conversion of CA1–20 ([1]; Fig 2a, 20 μM 2OG, both FIH substrates in one vessel, after 5 min): > 90%
conversion of HIF-1α788–822 ([1]; Fig 2a, 20 μM 2OG, both FIH substrates in one vessel, after 12 min): ~ 60%
substrate hydroxylation (% conversion) ([1]; Fig 2b, 20 μM 2OG, FIH, 1.19933 min): 58.5759 and 53.8983
FIH-catalyzed CA1–20 hydroxylation ([1]; Fig 2b, 20 μM 2OG, after 4 min): > 80%
FIH-catalyzed substrate turnover ([1]; Fig 4a, 0.5 mM 2OG, absence of 13, after 4 min): ~ 80%
slope of initial reaction rate ([2]; CA1-20, 0.25 μM 2OG): 0.01003 and 0.007495
slope of initial reaction rate ([2]; CA1-20, 0.5 μM 2OG): 0.01547 and 0.01452 and 0.0138
slope of initial reaction rate ([2]; CA1-20, 1 μM 2OG): 0.01838 and 0.01865 and 0.02116
slope of initial reaction rate ([2]; CA1-20, 2 μM 2OG): 0.02416 and 0.02022 and 0.02356
slope of initial reaction rate ([2]; CA1-20, 4 μM 2OG): 0.02388 and 0.01977 and 0.02365
slope of initial reaction rate ([2]; CA1-20, 8 μM 2OG): 0.02261 and 0.02524
slope of initial reaction rate ([2]; HIF-1a788-822, 0.1 μM 2OG): 0.000581 and 0.000778 and 0.00072
slope of initial reaction rate ([2]; HIF-1a788-822, 0.25 μM 2OG): 0.001141 and 0.001302 and 0.001382
slope of initial reaction rate ([2]; HIF-1a788-822, 0.5 μM 2OG): 0.001962 and 0.002167 and 0.002275
slope of initial reaction rate ([2]; HIF-1a788-822, 1 μM 2OG): 0.003115 and 0.003005 and 0.00301
slope of initial reaction rate ([2]; HIF-1a788-822, 2 μM 2OG): 0.00418 and 0.004157 and 0.004411
slope of initial reaction rate ([2]; HIF-1a788-822, 4 μM 2OG): 0.004637 and 0.004674 and 0.005127
slope of initial reaction rate ([2]; HIF-1a788-822, 8 μM 2OG): 0.004319 and 0.005019 and 0.005929
slope of initial reaction rate ([2]; HIF-1a788-822, 16 μM 2OG): 0.00539 and 0.005468 and 0.006359
slope of initial reaction rate ([2]; HIF-1a788-822, 32 μM 2OG): 0.006447 and 0.005635
FIH Kmapp ([2]; HIF-1α788–822 substrate): 0.84 µM
